Laboratory results reported in PMC7792611, “The Delta-Specific Opioid Glycopeptide BBI-11008: CNS Penetration and Behavioral Analysis in a Preclinical Model of Levodopa-Induced Dyskinesia” (International Journal of Molecular Sciences, 2020).
Values joined by “and” are separate entries in the source; they are usually repeats but may differ in a detail not shown here. Equal entries are not always repeated. “Also recorded” adds a separate entry of the source. Where two headings read alike, the source gives them in different places. Non-standard residues stand in square brackets, D forms with d. Residues, ends and D or L forms follow the SMILES beside them. *: point of attachment. βGlc = OC[C@H]1O[C@@H](*)[C@H](O)[C@@H](O)[C@@H]1O; Nle = CCCC[C@H](N)C(=O)O

What was measured:
[1] = In vivo microdialysis in the dorsolateral striatum with LC-MS; conditions: 10 mg/kg i.p., rat
Experimental: Adult male Sprague–Dawley rats (Harlan, Indianapolis, IN, USA) weighing between 250 and 350 g were used for all experiments (n = 6). Rats were housed in a temperature and humidity-controlled room with 12 h light/dark cycles with food and water available ad libitum. All animals were treated as approved by the University of Michigan Unit for Laboratory Animal Medicine (Protocol: 08516; approval date: 4 April 2011) and in accordance with the National Institute of Health (NIH) Guidelines for the Care and Use of Laboratory Animals. The number of animals used, and their suffering were minimized.
We performed in vivo microdialysis in the rat DLS and applied LC-MS analytical techniques to quantify brain concentrations of the deltorphin analogue BBI-11008, following systemic treatment, and of endogenous leu-enkephalin levels both before and after treatment. These experiments were performed in awake, freely moving rats, implanted with microdialysis probes in the DLS 24 h prior to the experiments. The animals were fully recovered, their wounds healed, and the probes were fixed in place with dental cement. The details of the microdialysis procedure to detect glycopeptides in the rat striatum has been described in detail in [27], with the following minor modifications: the concentric microdialysis probes were slightly larger at 3 mm, and the microdialysis probes were flushed at a lower flow rate of 0.7 µL/min.

[2] = biological target: T1, human DOR (Homo sapiens, UniProt P41143); test: Opioid receptor binding, inhibition of [3H]naltrindole binding to CHO cell membranes; conditions: for % Inhibition at DOR: 0.2 nM [3H]naltrindole
T1 construct: expressed in transfected cells

[3] = biological target: T2, human MOR (Homo sapiens, UniProt P35372); test: Opioid receptor binding, inhibition of [3H]DAMGO binding to CHO cell membranes; conditions: for % Inhibition at MOR: 0.25 nM [3H]DAMGO
T2 construct: expressed in transfected cells

[4] = biological target: T3, human KOR (Homo sapiens, UniProt P41145); test: Opioid receptor binding, [3H]U69593 binding to CHO cell membranes; conditions: 1 nM [3H]U69593; cells print % values
T3 construct: expressed in transfected cells
Experimental: Opioid Receptor Binding: Opioid receptor binding assays were performed as previously described. Membranes from CHO cells stably expressing either the human DOR, MOR, or KOR were used in the binding experiments. […] [^3H]U69593 at a concentration of 1 nM was used to measure binding to the KOR. […] BBI-11008 was chosen for further study.

[5] = tested on: L-DOPA-induced dyskinesia (LID) models; conditions: cited from earlier work
[6] = tested on: L-DOPA-induced abnormal involuntary movements in 6-OHDA-lesioned rats; test: L-DOPA-induced dyskinesia model in unilateral 6-OHDA-lesioned rats, AIMs scoring; type: in vivo, rat; conditions: MK-801 0.3 mg/kg i.p., 25 min prior to L-DOPA
Experimental: Male Sprague-Dawley rats (250 g; Harlan, Indianapolis, IN, USA), were housed in a temperature and humidity-controlled room with 12 h light/dark cycles with food and water available ad libitum. All animals were treated as approved by the Institutional Animal Care and Use Committee at the University of Arizona (Protocol number: 10-204; amendment approval date: 20 August 2012) and in accordance with the NIH Guidelines for the Care and Use of Laboratory Animals. The number of animals used, and their suffering were minimized.
All surgical procedures were performed as published in our prior work unless otherwise stated. […]
Rats showing ipsiversive rotations were selected and treated daily (i.p.) for 3 weeks with a combination of L-DOPA (7 mg/kg) and benserazide (14 mg/kg, MilliporeSigma). […] Baseline L-DOPA-induced LAO and locomotor AIMs (mean ± SEM) were determined over 3 testing sessions, before testing of the compounds was begun. […]
L-DOPA-induced AIMs were scored by an experimentally blinded investigator according to [57]. […] In order to quantify the severity of the AIMs, rats were observed individually in their standard cages every 20th min between 20 and 180 min after an injection of L-DOPA. […]

[7] = tested on: tail-withdrawal assay; conditions: mice, intravenous administration; ref Bilsky and Polt, personal communication; cited from earlier work

T2 sequence (P35372 whole entry): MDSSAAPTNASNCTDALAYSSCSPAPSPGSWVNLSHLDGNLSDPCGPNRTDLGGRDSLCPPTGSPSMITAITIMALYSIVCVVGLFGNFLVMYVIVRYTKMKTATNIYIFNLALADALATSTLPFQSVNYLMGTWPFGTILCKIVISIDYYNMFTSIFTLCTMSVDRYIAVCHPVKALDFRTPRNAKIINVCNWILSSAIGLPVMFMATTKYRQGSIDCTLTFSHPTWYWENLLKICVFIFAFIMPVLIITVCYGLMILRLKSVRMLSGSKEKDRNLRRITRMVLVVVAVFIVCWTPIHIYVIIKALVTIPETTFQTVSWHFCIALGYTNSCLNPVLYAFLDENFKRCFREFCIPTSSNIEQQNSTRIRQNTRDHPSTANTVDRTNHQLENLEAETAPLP
T1 sequence (P41143 whole entry): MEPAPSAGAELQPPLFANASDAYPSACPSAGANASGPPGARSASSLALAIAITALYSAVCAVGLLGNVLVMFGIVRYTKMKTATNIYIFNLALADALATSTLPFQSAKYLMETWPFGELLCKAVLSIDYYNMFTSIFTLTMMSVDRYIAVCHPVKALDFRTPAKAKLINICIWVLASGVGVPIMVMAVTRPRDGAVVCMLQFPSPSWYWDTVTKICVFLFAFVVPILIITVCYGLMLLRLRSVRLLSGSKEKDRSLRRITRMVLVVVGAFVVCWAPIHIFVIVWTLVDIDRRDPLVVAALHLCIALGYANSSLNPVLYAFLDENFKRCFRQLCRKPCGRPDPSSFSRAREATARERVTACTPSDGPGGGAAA
T3 sequence (P41145 whole entry): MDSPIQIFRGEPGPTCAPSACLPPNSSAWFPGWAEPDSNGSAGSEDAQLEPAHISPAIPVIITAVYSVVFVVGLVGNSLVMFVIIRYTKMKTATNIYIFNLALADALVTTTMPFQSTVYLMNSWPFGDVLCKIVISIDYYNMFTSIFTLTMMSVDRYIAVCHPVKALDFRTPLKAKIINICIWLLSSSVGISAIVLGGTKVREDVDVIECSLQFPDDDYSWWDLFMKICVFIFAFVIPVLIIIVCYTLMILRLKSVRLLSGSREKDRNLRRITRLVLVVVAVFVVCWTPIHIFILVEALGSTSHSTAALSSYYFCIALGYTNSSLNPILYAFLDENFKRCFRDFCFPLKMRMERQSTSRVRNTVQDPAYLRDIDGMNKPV

| Molecule | % Inhibition at DOR ([2]; peptide 100 nM) | % Inhibition at DOR ([2]; peptide 1 µM) | % Inhibition at MOR ([3]; peptide 100 nM) | % Inhibition at MOR ([3]; peptide 1 µM) | also measured |
| --- | --- | --- | --- | --- | --- |
| CCCC[C@H](NC(=O)[C@H](CCC(=O)O)NC(=O)[C@H](Cc1ccccc1)NC(=O)[C@@H](C)NC(=O)[C@@H](N)Cc1ccc(O)cc1)C(=O)N[C@@H](CCCC)C(=O)N[C@H](C(N)=O)[C@@H](C)O[C@@H]1O[C@H](CO)[C@@H](O)[C@H](O)[C@H]1O [BBI-11008, H2N-YaFE-Nle-Nle-T-(β-D-Glc)] (H-Y[dA]FE[Nle][Nle]T(βGlc)-NH2) |  |  |  |  | peak BBI-11008 level relative to baseline endogenous leu-enkephalin [1]: 10 fold; peak BBI-11008 concentration in dorsolateral striatum dialysate ([1]; 10 min post-injection): 150 pM and > 150 pM; level at time molar at 1 h ([1]; male, Sprague-Dawley, in vivo, ip, 10 mg/kg, 60 min, read-out: striatal BBI-11008 concentration at 60 min post-injection (mean)): ~0.037 nM |
| CCCC[C@H](NC(=O)[C@H](CCC(=O)O)NC(=O)[C@H](Cc1ccccc1)NC(=O)[C@@H](C)NC(=O)[C@@H](N)Cc1ccc(O)cc1)C(=O)N[C@@H](CCCC)C(=O)N[C@H](C(N)=O)[C@@H](C)O [BBI-11009, H2N-YaFE-Nle-Nle-T] (H-Y[dA]FE[Nle][Nle]T-NH2) |  |  |  |  | Ki [2]: 11 nM; Ki [3]: 510 nM; % Inhibition at KOR [4]: 3.7% |
| CCN(CC)C(=O)c1ccc([C@H](c2cccc(O)c2)N2C[C@@H](C)N(Cc3cccc(F)c3)C[C@@H]2C)cc1 [DPI-289] |  |  |  |  | effect on LID ([5]; rodent and non-human primate LID models): anti-dyskinetic |
| C[C@]12N[C@H](Cc3ccccc31)c1ccccc12 [MK-801, Dizocilpine] |  |  |  |  | effect on L-DOPA-induced LAO AIMs [6]: reduced levodopa-induced LAO AIMs; also recorded: does reduce LAO-AIMs; also recorded: efficiently blocked LAO AIMs; ipsiversive pro-Parkinsonian locomotor activity [6]: worsened PD symptoms; also recorded: induces ipsiversive pro-Parkinsonian locomotor activity; also recorded: caused ipsiversive turns |
| CNC1(c2ccccc2Cl)CCCCC1=O (stereo not drawn) [ketamine] |  |  |  |  | effect on LID and Parkinsonism ([5]; sub-anesthetic treatment, rodent models): anti-dyskinetic and anti-Parkinsonian |
| Oc1ccc2c3c1O[C@H]1[C@@H](O)CC[C@@]4(O)[C@@H](C2)N(CC2CCC2)CC[C@]314 [nalbuphine] |  |  |  |  | effect on LID ([5]; dyskinetic non-human LID primates): reduce LID |
| CTAP |  |  |  |  | effect on LID ([5]; highly-selective MOR antagonists): did not reduce LID |
| H2N-YaFHLA-S(β-D-Glc) [BBI-11002] | 55% | 77% | 82% | 97% |  |
| H2N-YaFHLAT-(β-D-Glc) [BBI-11004] | 61% | 76% | 88% | 98% |  |
| H2N-YmFHLM-S(β-D-Glc) [BBI-11001] | 72% | 84% | 63% | 89% |  |
| H2N-YmFHLMT-(β-D-Glc) [BBI-11003] | 75% | 83% | 57% | 89% |  |
| Lactomorphin [MMP-2200] |  |  |  |  | effect on MK-801-induced pro-Parkinsonian activity ([5]; co-administration with MK-801, rodent LID model): attenuated the pro-Parkinsonian activity of MK-801 |
| YaFEVVG-CONH2 [deltorphin] |  |  |  |  | antinociceptive effect in the tail-withdrawal assay [7]: lacks this activity |
